Test [1] deals with EGFR (Homo sapiens, UniProt P00533). Put plainly: EGFR signaling (pEGFR Tyr1068/total EGFR MSD) in A431 cells. It is filed as cell-based. Also noted: endogenous in cells; host or cells: A431, N87. To be noted: for EC50: A431 cells, read-out: A431 pEGFR EC50; for Selectivity A431 EC50/BT474 EC50: ratio A431 pEGFR EC50 to BT474 pHER2 EC50; for Selectivity A431 EC50/HEKYVMA EC50: ratio A431 pEGFR EC50 to HEK YVMA pHER2 EC50. The gist of the method: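 EC50 was fitted with variable Hill slope from MSD pTyr1068/total EGFR ratios, expressed as % DMSO control. A431 cells were starved overnight, then exposed 1.5 h to eight concentrations from 10 to 0.005 μM in 1% FBS before a 10-min 100 ng/mL EGF pulse.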
Sequence of EGFR (P00533 25-1210): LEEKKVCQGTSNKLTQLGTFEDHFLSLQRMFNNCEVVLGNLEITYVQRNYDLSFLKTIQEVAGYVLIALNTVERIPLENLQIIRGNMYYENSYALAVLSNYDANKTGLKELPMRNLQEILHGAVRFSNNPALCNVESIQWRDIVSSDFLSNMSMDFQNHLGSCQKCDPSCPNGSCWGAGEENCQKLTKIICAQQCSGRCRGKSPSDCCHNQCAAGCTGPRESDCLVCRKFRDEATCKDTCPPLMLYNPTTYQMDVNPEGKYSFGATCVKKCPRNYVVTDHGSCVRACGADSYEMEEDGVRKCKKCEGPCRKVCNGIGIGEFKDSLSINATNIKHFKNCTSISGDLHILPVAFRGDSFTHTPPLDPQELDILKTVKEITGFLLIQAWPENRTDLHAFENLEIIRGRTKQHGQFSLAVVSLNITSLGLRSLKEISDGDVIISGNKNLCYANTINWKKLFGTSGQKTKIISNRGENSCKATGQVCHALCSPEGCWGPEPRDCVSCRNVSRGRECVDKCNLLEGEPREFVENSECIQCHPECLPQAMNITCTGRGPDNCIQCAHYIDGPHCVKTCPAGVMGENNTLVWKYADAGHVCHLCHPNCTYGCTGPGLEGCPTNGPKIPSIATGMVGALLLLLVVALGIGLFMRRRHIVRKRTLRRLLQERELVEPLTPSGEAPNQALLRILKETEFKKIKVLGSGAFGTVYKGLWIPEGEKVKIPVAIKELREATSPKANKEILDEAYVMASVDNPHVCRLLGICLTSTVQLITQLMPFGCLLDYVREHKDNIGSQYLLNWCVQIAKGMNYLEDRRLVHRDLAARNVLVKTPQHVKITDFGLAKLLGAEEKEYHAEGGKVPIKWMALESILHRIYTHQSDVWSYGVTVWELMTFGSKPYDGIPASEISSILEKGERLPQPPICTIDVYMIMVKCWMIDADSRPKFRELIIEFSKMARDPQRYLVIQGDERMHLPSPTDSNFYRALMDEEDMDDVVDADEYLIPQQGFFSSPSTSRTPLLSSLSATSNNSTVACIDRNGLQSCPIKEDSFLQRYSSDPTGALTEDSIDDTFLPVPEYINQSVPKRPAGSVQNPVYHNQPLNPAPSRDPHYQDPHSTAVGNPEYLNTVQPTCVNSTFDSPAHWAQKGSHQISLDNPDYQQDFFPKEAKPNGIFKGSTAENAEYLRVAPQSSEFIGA

The target in test [2] is HER2YVMA (Homo sapiens, UniProt P04626, INS775YVMA). Put plainly: HER2 signaling (pHER2) in Hek293-HER2YVMA cells. It is filed as cell-based. Also noted: expressed in transfected cells; host or cells: HEK293 (pool), Ba/F3 (clones), BEAS2B (clones); lentiviral vector pCDH-CMV-MCS-EF1-Neo. To be noted: 1.5 hr compound, 1% FBS, read-out: HEKYVMA pHER2 EC50. A digest of the protocol:
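Lentivirally transduced HER2YVMA lines (HEK293 pool; BEAS2B clone) treated 1.5 h at 37 °C in 1% FBS medium with compound at 0.0005–1.1 μM. Lysates read by MSD immunoassay for pHER2 (Tyr1248) normalized to total HER2, as % DMSO control; EC50 from variable-slope sigmoidal fit.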

Sequence of HER2YVMA (P04626 with tags, fused parts or gaps INS775YVMA): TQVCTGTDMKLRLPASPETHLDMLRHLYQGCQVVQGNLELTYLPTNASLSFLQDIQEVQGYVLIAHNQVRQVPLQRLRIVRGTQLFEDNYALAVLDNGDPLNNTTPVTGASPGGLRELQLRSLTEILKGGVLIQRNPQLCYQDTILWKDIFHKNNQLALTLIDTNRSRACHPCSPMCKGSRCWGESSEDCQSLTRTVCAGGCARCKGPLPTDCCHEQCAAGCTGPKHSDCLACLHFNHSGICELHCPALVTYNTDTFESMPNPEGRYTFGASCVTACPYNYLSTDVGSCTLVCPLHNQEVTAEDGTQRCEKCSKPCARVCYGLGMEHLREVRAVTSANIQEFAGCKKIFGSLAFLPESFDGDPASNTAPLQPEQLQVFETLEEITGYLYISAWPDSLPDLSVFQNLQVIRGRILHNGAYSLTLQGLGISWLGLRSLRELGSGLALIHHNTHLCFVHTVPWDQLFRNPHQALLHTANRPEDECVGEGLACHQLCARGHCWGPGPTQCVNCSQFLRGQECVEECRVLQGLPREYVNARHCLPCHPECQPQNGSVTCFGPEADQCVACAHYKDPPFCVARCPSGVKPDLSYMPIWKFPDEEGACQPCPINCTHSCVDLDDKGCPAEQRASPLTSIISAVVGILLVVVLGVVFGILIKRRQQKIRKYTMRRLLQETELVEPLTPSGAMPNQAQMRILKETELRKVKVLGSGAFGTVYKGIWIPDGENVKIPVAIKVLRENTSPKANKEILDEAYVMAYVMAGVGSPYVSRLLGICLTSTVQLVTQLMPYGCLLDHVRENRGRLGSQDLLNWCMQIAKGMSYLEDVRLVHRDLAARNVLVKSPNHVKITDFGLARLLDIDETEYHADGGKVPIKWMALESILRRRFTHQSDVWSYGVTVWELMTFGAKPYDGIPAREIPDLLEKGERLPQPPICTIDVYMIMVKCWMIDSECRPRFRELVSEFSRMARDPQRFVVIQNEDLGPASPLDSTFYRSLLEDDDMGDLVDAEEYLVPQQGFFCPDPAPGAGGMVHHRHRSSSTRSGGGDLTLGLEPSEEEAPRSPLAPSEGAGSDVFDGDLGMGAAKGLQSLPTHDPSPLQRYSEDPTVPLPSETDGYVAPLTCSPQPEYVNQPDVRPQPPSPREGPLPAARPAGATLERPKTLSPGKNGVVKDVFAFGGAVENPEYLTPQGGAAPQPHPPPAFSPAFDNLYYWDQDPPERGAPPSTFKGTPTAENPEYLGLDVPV

Take `COc1ccc(Oc2ccc(Nc3ncnc4sc5c(c34)C(C)CN(C(=O)C=CCN(C)C)C5)cc2C)cn1` (single isomer, unassigned) [Compound 160]: in test [1], the concentration giving a half-maximal response (EC50) (as a rule, the concentration needed to bring the measured effect to its halfway point) lay within 100 to 1000 nM; the “Selectivity A431 EC50/BT474 EC50” value was “D (D: ≥ 5 and < 10)”; the “Selectivity A431 EC50/HEKYVMA EC50” value is “D (D: ≥ 5 and < 10)”. In test [2], the EC50 was below 100 nM.

As to `Cc1cc(Nc2ncnc3sc4c(c23)CCN(C(=O)/C=C/CN(C)C)C4)ccc1Oc1ccc2nccn2c1` [Compound 109, (E)-4-(dimethylamino)-1-(4-((4-(imidazo[1,2-a]pyridin-6-yloxy)-3-methylphenyl)amino)-5,6-dihydropyrido[4′,3′:4,5]thieno[2,3-d]pyrimidin-7(8H)-yl)but-2-en-1-one], in test [1], the 50% effective concentration (EC50) is 100 to 1000 nM; the “Selectivity A431 EC50/BT474 EC50” value is “D (D: ≥ 5 and < 10)”; the “Selectivity A431 EC50/HEKYVMA EC50” value was “E (E: >1 and < 5)”. Moreover, in test [2], the half-maximal effective concentration (EC50) is below 100 nM.

As for `Cc1cc(Nc2ncnc3sc4c(c23)CN(C(=O)/C=C/CN(C)C)C4)ccc1Oc1ccc2ncnn2c1` [Compound 111, (E)-1-(4-((4-([1,2,4]Triazolo[1,5-a]pyridin-6-yloxy)-3-methylphenyl)amino)-5H-pyrrolo[3′,4′:4,5]thieno[2,3-d]pyrimidin-6(7H)-yl)-4-(dimethylamino)but-2-en-1-one], in test [1], the EC50 was 1000 to 10000 nM; the “Selectivity A431 EC50/BT474 EC50” value is reported as “A (A: ≥100)”; the “Selectivity A431 EC50/HEKYVMA EC50” value is “B (B: ≥ 20 and < 100)”. In test [2], the half-maximal effective concentration (EC50) is 100 to 350 nM.

As to `COc1ccc(Oc2ccc(Nc3ncnc4sc5c(c34)CCN(C(=O)/C=C/CN3CCOCC3)C5)cc2C)cn1` [Compound 164], in test [1], the EC50 is 100 to 1000 nM; the “Selectivity A431 EC50/BT474 EC50” value was “C (C: ≥ 10 and < 20)”; the “Selectivity A431 EC50/HEKYVMA EC50” value was “D (D: ≥ 5 and < 10)”. The concentration for a half-maximal effect (EC50) in test [2] was below 100 nM.

Regarding `CC[C@H](NC/C=C/C(=O)N1CCc2c(sc3ncnc(Nc4ccc(Oc5ccc(C)nc5)c(C)c4)c23)C1)C(F)(F)F` [Compound 122], in test [1], the EC50 was 100 to 1000 nM; the “Selectivity A431 EC50/BT474 EC50” value is “B (B: ≥ 20 and < 100)”; the “Selectivity A431 EC50/HEKYVMA EC50” value is “B (B: ≥ 20 and < 100)”. In test [2], the EC50 was below 100 nM.

Consider `Cc1ccc(Oc2ccc(Nc3ncnc4sc5c(c34)CCN(C(=O)/C=C/CN3CC4(CCCC4)C3)C5)cc2C)cn1` [Compound 123], for which, in test [1], the half-maximal effective concentration (EC50) lay in the range of 100 to 1000 nM; the “Selectivity A431 EC50/BT474 EC50” value was “C (C: ≥ 10 and < 20)”; the “Selectivity A431 EC50/HEKYVMA EC50” value is “D (D: ≥ 5 and < 10)”. Moreover, the EC50 in test [2] was below 100 nM.

As to `Cc1ccc(Oc2ccc(Nc3ncnc4sc5c(c34)CN(C(=O)/C=C/CN(C)C)C5C)cc2C)cn1` (centres unmarked) [Compound 153, (E)-4-(dimethylamino)-1-(7-methyl-4-((3-methyl-4-((6-methylpyridin-3-yl)oxy)phenyl)amino)-5,7-dihydro-6H-pyrrolo[3′,4′:4,5]thieno[2,3-d]pyrimidin-6-yl)but-2-en-1-one], in test [1], the EC50 is 100 to 1000 nM; the “Selectivity A431 EC50/BT474 EC50” value was “B (B: ≥ 20 and < 100)”; the “Selectivity A431 EC50/HEKYVMA EC50” value is “C (C: ≥ 10 and < 20)”. Also, in test [2], the EC50 was below 100 nM.

For the compound `Cc1cc(Nc2ncnc3sc4c(c23)CCN(C(=O)/C=C/CN(C)C)C4)ccc1Oc1ccn2ncnc2c1` [Compound 138, (E)-1-(4-((4-([1,2,4]triazolo[1,5-a]pyridin-7-yloxy)-3-methylphenyl)amino)-5,8-dihydropyrido[4′,3′:4,5]thieno[2,3-d]pyrimidin-7(6H)-yl)-4-(dimethylamino)but-2-en-1-one], in test [1], the EC50 was 100 to 1000 nM; the “Selectivity A431 EC50/BT474 EC50” value was “B (B: ≥ 20 and < 100)”; the “Selectivity A431 EC50/HEKYVMA EC50” value is given as “A (A: ≥100)”. In addition, the 50% effective concentration (EC50) in test [2] is below 100 nM.

Values taken from patent publication US20240391931A1 (Bristol-Myers Squibb Company, priority 2021, published 2024).
